Test results published in ChEMBL document CHEMBL1275486, “Kinetic characterization of VIM-7, a divergent member of the VIM metallo-beta-lactamase family” (Antimicrob Agents Chemother, 2008).

How the values were obtained:
Escherichia coli [1] = experiment: Activity of Escherichia coli beta-lactamase VIM-1 by spectrophotometry
Escherichia coli [2] = experiment: Ratio of Kcat to Km for Escherichia coli beta-lactamase VIM-1 by spectrophotometry

C[C@H]1[C@H](NC(=O)/C(=N\OC(C)(C)C(=O)O)c2csc(N)n2)C(=O)N1S(=O)(=O)O
Km (Escherichia coli [1]): > 1000 µM | kcat (Escherichia coli [1]): < 0.01 s⁻¹

C[C@]1(Cn2ccnn2)[C@H](C(=O)O)N2C(=O)C[C@H]2S1(=O)=O
Km (Escherichia coli [1]): 340 µM | kcat (Escherichia coli [1]): 5.3 s⁻¹ | kcat/Km (Escherichia coli [2]): 16000 M⁻¹ s⁻¹

O=C(Cc1cccs1)N[C@@H]1C(=O)N2C(C(=O)O)=C(/C=C/c3ccc([N+](=O)[O-])cc3[N+](=O)[O-])CS[C@H]12
Km (Escherichia coli [1]): 17 µM | kcat (Escherichia coli [1]): 95 s⁻¹ | kcat/Km (Escherichia coli [2]): 5.6e+06 M⁻¹ s⁻¹
